The values below come from ChEMBL document CHEMBL1142670, “Synthesis, nicotinic acetylcholine receptor binding, and antinociceptive properties of 3'-substituted deschloroepibatidine analogues. Novel nicotinic antagonists” (J Med Chem, 2005).

Experiment [1] is filed under the species Mus musculus. Nature of the experiment: Effective dose to induce hypothermia in mouse was determined. It counts as functional.
The species named for experiment [2] is Mus musculus. The experiment can be described thus: Effective dose to induce antinociception in mouse determined in hotplate test. The format is functional.
For experiment [3], the species on record is Mus musculus. The experiment can be described thus: Effective dose to induce antinociception in mouse determined in tail-flick test. The format is functional.
The species named for experiment [4] is Mus musculus. The experiment can be described thus: Effective dose to induce spontaneous activity in mouse was determined. The format is functional.
The subject of experiment [5] is Mus musculus. Nature of the experiment: Anesthetic dose in mouse in tail-flick test. It counts as functional.
The test system of experiment [6] is Mus musculus. The experiment can be described thus: Anesthetic effect in mouse in hotplate test at 20 ug/kg. The format is functional.
Experiment [7] concerns the target Neuronal acetylcholine receptor subunit alpha-7 (Rattus norvegicus, UniProt Q05941). The experiment can be described thus: Inhibition of [125I]-iodo-MLA binding to Nicotinic acetylcholine receptor alpha-7 in rat cerebral cortex. The format is tissue-based.
For experiment [8], the target named is Neuronal acetylcholine receptor; alpha4/beta2 (Rattus norvegicus, UniProt P09483+P12390). The experiment can be described thus: Inhibition of [3H]epibatidine binding to Nicotinic acetylcholine receptor alpha4-beta2 in rat cerebral cortex. It counts as tissue-based.
Sequence of Neuronal acetylcholine receptor; alpha4/beta2 (P09483 whole entry): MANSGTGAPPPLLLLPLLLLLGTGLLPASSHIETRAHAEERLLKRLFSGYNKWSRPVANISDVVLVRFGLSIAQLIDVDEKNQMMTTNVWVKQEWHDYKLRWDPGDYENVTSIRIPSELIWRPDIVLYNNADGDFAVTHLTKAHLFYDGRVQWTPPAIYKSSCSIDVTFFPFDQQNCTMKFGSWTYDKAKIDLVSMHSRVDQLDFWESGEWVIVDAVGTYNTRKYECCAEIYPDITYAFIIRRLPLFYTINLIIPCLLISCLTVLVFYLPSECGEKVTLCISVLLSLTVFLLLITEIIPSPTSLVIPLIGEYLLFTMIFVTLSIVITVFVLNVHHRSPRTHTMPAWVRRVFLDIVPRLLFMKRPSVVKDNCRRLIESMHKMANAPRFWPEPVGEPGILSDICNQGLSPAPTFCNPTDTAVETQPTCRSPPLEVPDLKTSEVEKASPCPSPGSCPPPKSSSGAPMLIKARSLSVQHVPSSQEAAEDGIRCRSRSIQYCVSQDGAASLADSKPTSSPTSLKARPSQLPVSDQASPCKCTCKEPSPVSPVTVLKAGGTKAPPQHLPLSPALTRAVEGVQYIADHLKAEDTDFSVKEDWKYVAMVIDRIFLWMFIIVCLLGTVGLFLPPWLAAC
Sequence of Neuronal acetylcholine receptor; alpha4/beta2 (P12390 whole entry): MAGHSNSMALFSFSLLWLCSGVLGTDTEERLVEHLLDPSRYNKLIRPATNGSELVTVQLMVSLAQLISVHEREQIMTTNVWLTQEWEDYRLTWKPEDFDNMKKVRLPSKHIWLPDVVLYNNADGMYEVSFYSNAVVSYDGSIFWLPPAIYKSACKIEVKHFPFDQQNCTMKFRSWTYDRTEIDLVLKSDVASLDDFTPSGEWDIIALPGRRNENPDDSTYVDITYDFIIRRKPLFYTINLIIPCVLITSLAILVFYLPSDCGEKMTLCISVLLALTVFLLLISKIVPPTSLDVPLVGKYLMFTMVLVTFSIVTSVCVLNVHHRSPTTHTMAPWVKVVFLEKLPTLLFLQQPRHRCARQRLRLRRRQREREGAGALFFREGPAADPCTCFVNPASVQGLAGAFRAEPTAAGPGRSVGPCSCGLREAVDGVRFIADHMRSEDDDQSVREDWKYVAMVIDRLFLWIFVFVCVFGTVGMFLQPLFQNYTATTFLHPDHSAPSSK
The nature of experiment [9]: Effect on body temperature of mouse was measured in tail-flick test at the rate 500 ug/kg. The format is functional.
For experiment [10], the system named is Mus musculus. Nature of the experiment: Anesthetic effect in mouse in hotplate test at 10 ug/kg. The format is functional.
For experiment [11], the system named is Mus musculus. Nature of the experiment: Anesthetic dose in hotplate test in mouse. The format is functional.
The test system of experiment [12] is Mus musculus. Nature of the experiment: Effect on body temperature of mouse was determined at 0.01 ug/kg. It counts as functional.
For experiment [13], the system named is Mus musculus. The experiment can be described thus: Effect on body temperature of mouse was determined at 10 ug/kg. The format is functional.
Experiment [14] concerns Mus musculus. Nature of the experiment: Anesthetic effect in hotplate test in mouse at 10 ug/kg. The format is functional.
The test system of experiment [15] is Mus musculus. The experiment can be described thus: Anesthetic effect in hotplate test in mouse at 0.1 ug/kg. It counts as functional.
Experiment [16] deals with Mus musculus. Nature of the experiment: Effect on body temperature of mouse was determined at 0.02 ug/kg. It counts as functional.
[17] abbreviates: Mus musculus, Tail, read-out: ED50.

Sequence of Neuronal acetylcholine receptor subunit alpha-7 (Q05941 whole entry): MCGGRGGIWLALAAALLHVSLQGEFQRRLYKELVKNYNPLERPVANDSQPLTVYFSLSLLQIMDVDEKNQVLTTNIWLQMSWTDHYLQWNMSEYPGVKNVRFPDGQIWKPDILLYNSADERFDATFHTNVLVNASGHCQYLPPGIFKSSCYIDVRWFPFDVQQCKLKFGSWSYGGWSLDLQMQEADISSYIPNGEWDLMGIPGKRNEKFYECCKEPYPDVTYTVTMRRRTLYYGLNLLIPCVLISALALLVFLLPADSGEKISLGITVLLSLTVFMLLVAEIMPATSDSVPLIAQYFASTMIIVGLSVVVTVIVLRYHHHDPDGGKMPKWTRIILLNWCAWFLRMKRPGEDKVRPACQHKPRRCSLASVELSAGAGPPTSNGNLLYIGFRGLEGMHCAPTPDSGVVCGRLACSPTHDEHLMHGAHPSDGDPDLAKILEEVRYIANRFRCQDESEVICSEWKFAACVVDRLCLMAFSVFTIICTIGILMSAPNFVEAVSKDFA

Regarding `Clc1ccc(C2CC3CCC2N3)cn1` (centres undefined) [EPIBATIDINE], the ED50 (commonly the dose at which the effect has come halfway, by size or by number of responders) in the experiment filed under Mus musculus [1] (Mus musculus, read-out: ED50) came out at 4 µg/kg; in the experiment listed under Mus musculus [2] (Mus musculus, read-out: ED50), 4 µg/kg; in the experiment listed under Mus musculus [3] (setting [17]), 6 µg/kg; in the experiment listed under Mus musculus [4] (Mus musculus, read-out: ED50), 1 µg/kg.
Turning to `Ic1cncc(C2CC3CCC2N3)c1` (single isomer, unassigned; (+)), the figures for the ED50 in the experiment listed under Mus musculus [2], in the experiment listed under Mus musculus [3] and in the experiment listed under Mus musculus [4] were 60 µg/kg, 780 µg/kg and 91 µg/kg, respectively. In the experiment on Mus musculus [5], this compound displayed an AD50 of 1.2 µg/kg. Besides, the Anesthetic effect in the experiment with Mus musculus [6] worked out at 15%. The Ki – broadly, the equilibrium dissociation constant of an inhibitor or competing ligand from its target – in experiment [7] was 179 nM; in experiment [8] it was 0.045 nM. In addition, in experiment [9], the Increase turned out to be 6%.
Regarding `Ic1cncc(C2CC3CCC2N3)c1` (single isomer, unassigned; (-)), the ED50 in the experiment listed under Mus musculus [1] amounted to 480 µg/kg; in the experiment filed under Mus musculus [2], 210 µg/kg; in the experiment filed under Mus musculus [3], 940 µg/kg; in the experiment listed under Mus musculus [4] it was 351 µg/kg. Also, the AD50 in the experiment on Mus musculus [5] was determined as 0.11 µg/kg. This compound also registered an Anesthetic effect in the experiment on Mus musculus [10] of 15%. Also, the Ki in experiment [7] came to 156 nM; in [8] it was 0.048 nM.
For `CN1CCC[C@H]1c1cccnc1` [NICOTINE], the ED50 came to 1000 µg/kg in the experiment filed under Mus musculus [1] (Mus musculus, read-out: ED50); 650 µg/kg in the experiment filed under Mus musculus [2] (Mus musculus, read-out: ED50); 1300 µg/kg in the experiment filed under Mus musculus [3] (setting [17]); 500 µg/kg in the experiment listed under Mus musculus [4] (Mus musculus, read-out: ED50).
`Nc1cncc(C2CC3CCC2N3)c1` (centres undefined): the ED50 in the experiment filed under Mus musculus [1] (Mus musculus, read-out: ED50) amounted to 2700 µg/kg; in the experiment listed under Mus musculus [2] (Mus musculus, read-out: ED50), 3100 µg/kg; in the experiment filed under Mus musculus [3] (setting [17]), 4700 µg/kg; in the experiment listed under Mus musculus [4] (Mus musculus, read-out: ED50), 900 µg/kg. Moreover, the AD50 in the experiment with Mus musculus [11] came out at 6.9 µg/kg; with Mus musculus [5], 1.6 µg/kg. In the experiment with Mus musculus [12], this compound gave an Effect of 0%. The Ki in experiment [7] came to 732 nM; in experiment [8], 0.097 nM.
`Brc1cncc(C2CC3CCC2N3)c1` (centres undefined): the ED50 in the experiment listed under Mus musculus [1] (Mus musculus, read-out: ED50) was 70 µg/kg; in the experiment filed under Mus musculus [2] (Mus musculus, read-out: ED50), 570 µg/kg; in the experiment listed under Mus musculus [3] (setting [17]), 1200 µg/kg; in the experiment listed under Mus musculus [4] (Mus musculus, read-out: ED50) it was 100 µg/kg. In addition, the AD50 in the experiment with Mus musculus [11] is 0.78 µg/kg; with Mus musculus [5], 15 µg/kg. The compound also showed an Effect with Mus musculus [12] of 0%. Further, the Ki came to 164 nM in [7] and 0.05 nM in experiment [8].
On to `CN1C2CCC1C(c1cncc(I)c1)C2` (centres undefined), for which the ED50 in the experiment listed under Mus musculus [1] (Mus musculus, read-out: ED50) amounted to 340 µg/kg; in the experiment filed under Mus musculus [2] (Mus musculus, read-out: ED50), 370 µg/kg; in the experiment filed under Mus musculus [3] (setting [17]), 600 µg/kg; in the experiment filed under Mus musculus [4] (Mus musculus, read-out: ED50) it was 30 µg/kg. The compound also yielded an AD50 in the experiment on Mus musculus [5] of 0.04 µg/kg. Also, the Effect in the experiment on Mus musculus [13] is 0%. Further, the Anesthetic effect with Mus musculus [14] amounted to 0%. For the same compound, the Ki is 33.2 nM in experiment [7] and 0.029 nM in [8].
As to `C=Cc1cncc(C2CC3CCC2N3)c1` (centres undefined), the ED50 in the experiment filed under Mus musculus [1] (Mus musculus, read-out: ED50) amounted to 450 µg/kg; in the experiment filed under Mus musculus [2] (Mus musculus, read-out: ED50), 800 µg/kg; in the experiment listed under Mus musculus [3] (setting [17]), 1000 µg/kg; in the experiment filed under Mus musculus [4] (Mus musculus, read-out: ED50), 200 µg/kg. In addition, the AD50 amounted to 100 µg/kg with Mus musculus [11] and 2.4 µg/kg in the experiment on Mus musculus [5]. In the experiment with Mus musculus [12], this compound showed an Effect of 0%. Moreover, the Ki in experiment [7] came to 344 nM; in experiment [8], 0.26 nM.
As to `C#Cc1cncc(C2CC3CCC2N3)c1` (centres undefined), the 50% effective dose (ED50) is 50 µg/kg in the experiment listed under Mus musculus [1] (Mus musculus, read-out: ED50); 560 µg/kg in the experiment filed under Mus musculus [2] (Mus musculus, read-out: ED50); 1000 µg/kg in the experiment listed under Mus musculus [3] (setting [17]); 1 µg/kg in the experiment listed under Mus musculus [4] (Mus musculus, read-out: ED50). In addition, the AD50 with Mus musculus [5] was found to be 6 µg/kg. Further, in the experiment on Mus musculus [12], the Effect worked out at 0%. Also, the Anesthetic effect with Mus musculus [15] came out at 0%. Also, the Ki in experiment [7] was 5 nM; in [8], 0.02 nM.
With `Ic1cncc(C2CC3CCC2N3)c1` (stereo in doubt; 3d), the ED50 in the experiment listed under Mus musculus [1] (Mus musculus, read-out: ED50) amounted to 780 µg/kg; in the experiment listed under Mus musculus [2] it was 900 µg/kg; in the experiment listed under Mus musculus [3] (setting [17]), 800 µg/kg; in the experiment listed under Mus musculus [4] it was 130 µg/kg. The AD50 in the experiment with Mus musculus [11] turned out to be 0.24 µg/kg; in the experiment on Mus musculus [5] it was 0.1 µg/kg. For the same compound, in the experiment with Mus musculus [12], the Effect is on record as 0%. This compound also gave a Ki in experiment [7] of 150 nM.
Consider `Clc1cncc(C2CC3CCC2N3)c1` (centres undefined), for which the ED50 in the experiment filed under Mus musculus [1] (Mus musculus, read-out: ED50) was 150 µg/kg; in the experiment listed under Mus musculus [2] (Mus musculus, read-out: ED50), 230 µg/kg; in the experiment filed under Mus musculus [3] (setting [17]) it was 300 µg/kg; in the experiment listed under Mus musculus [4] (Mus musculus, read-out: ED50), 40 µg/kg. Besides, the AD50 in the experiment with Mus musculus [11] was found to be 15 µg/kg; in the experiment with Mus musculus [5], 0.2 µg/kg. Also, in the experiment on Mus musculus [16], the Effect is on record as 0%. Moreover, the Ki in experiment [7] worked out at 50.6 nM; in experiment [8], 0.055 nM.
Turning to `Fc1cncc(C2CC3CCC2N3)c1` (centres undefined), the ED50 is 150 µg/kg in the experiment listed under Mus musculus [1] (Mus musculus, read-out: ED50); 50 µg/kg in the experiment listed under Mus musculus [2] (Mus musculus, read-out: ED50); 80 µg/kg in the experiment listed under Mus musculus [3] (setting [17]); 23 µg/kg in the experiment listed under Mus musculus [4] (Mus musculus, read-out: ED50). The AD50 in the experiment with Mus musculus [5] amounted to 0.07 µg/kg. In the experiment on Mus musculus [16], this compound yielded an Effect of 0%. This compound also registered an Anesthetic effect in the experiment on Mus musculus [6] of 35%. Further, the Ki in [7] is more than 1000 nM.
